Assay results: the supplement of paper PMC10307832

Experiments:
Assay in all cases: relative viability (nuclei count vs DMSO), 5 days (fraction); higher = more cells survive
FH535 + Palbociclib = compound: CC1=C(C=CC(=C1)[N+](=O)[O-])NS(=O)(=O)C2=C(C=CC(=C2)Cl)Cl [FH535] + CC(=O)c1c(C)c2cnc(Nc3ccc(N4CCNCC4)cn3)nc2n(C2CCCC2)c1=O [Palbociclib] (partner 0.5 µM)
Summary of the method: (§1)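 Each reported value is a median over duplicate plates. It expresses relative viability: treated-well nuclei count divided by vehicle-well nuclei count. Lung cancer cell lines in 1536-well plates were dosed by pin tool a day after seeding, alone with one drug or with a fixed anchor-drug dose plus five library-drug doses (not always all listed) in √10 steps, and nuclei were counted after 5 days.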

FH535 + Pictilisib = compound: CC1=C(C=CC(=C1)[N+](=O)[O-])NS(=O)(=O)C2=C(C=CC(=C2)Cl)Cl [FH535] + CS(=O)(=O)N1CCN(Cc2cc3nc(-c4cccc5[nH]ncc45)nc(N4CCOCC4)c3s2)CC1 [Pictilisib] (partner 1 µM)
Summary of the method: as §1

FH535 + Trametinib = compound: CC1=C(C=CC(=C1)[N+](=O)[O-])NS(=O)(=O)C2=C(C=CC(=C2)Cl)Cl [FH535] + CC(=O)Nc1cccc(-n2c(=O)n(C3CC3)c(=O)c3c(Nc4ccc(I)cc4F)n(C)c(=O)c(C)c32)c1 [Trametinib] (partner 0.02 µM)
Summary of the method: as §1

FH535 + Luminespib = compound: CC1=C(C=CC(=C1)[N+](=O)[O-])NS(=O)(=O)C2=C(C=CC(=C2)Cl)Cl [FH535] + CCNC(=O)c1noc(-c2cc(C(C)C)c(O)cc2O)c1-c1ccc(CN2CCOCC2)cc1 [Luminespib] (partner 0.01 µM)
Summary of the method: as §1

FH535 + Lapatinib = compound: CC1=C(C=CC(=C1)[N+](=O)[O-])NS(=O)(=O)C2=C(C=CC(=C2)Cl)Cl [FH535] + CS(=O)(=O)CCNCc1ccc(-c2ccc3ncnc(Nc4ccc(OCc5cccc(F)c5)c(Cl)c4)c3c2)o1 [Lapatinib] (partner 2 µM)
Summary of the method: as §1

Row | Cell Line | relative viability (FH535 + Palbociclib; first compound 0.04 µM) | relative viability (FH535 + Palbociclib; first compound 0.1265 µM) | relative viability (FH535 + Palbociclib; first compound 0.4 µM) | relative viability (FH535 + Palbociclib; first compound 1.265 µM) | relative viability (FH535 + Pictilisib; first compound 0.04 µM) | relative viability (FH535 + Pictilisib; first compound 0.1265 µM) | relative viability (FH535 + Pictilisib; first compound 0.4 µM) | relative viability (FH535 + Pictilisib; first compound 1.265 µM) | relative viability (FH535 + Trametinib; first compound 0.04 µM) | relative viability (FH535 + Trametinib; first compound 0.1265 µM) | relative viability (FH535 + Trametinib; first compound 0.4 µM) | relative viability (FH535 + Trametinib; first compound 1.265 µM) | relative viability (FH535 + Luminespib; first compound 0.04 µM) | relative viability (FH535 + Luminespib; first compound 0.1265 µM) | relative viability (FH535 + Luminespib; first compound 0.4 µM) | relative viability (FH535 + Luminespib; first compound 1.265 µM) | relative viability (FH535 + Lapatinib; first compound 0.04 µM) | relative viability (FH535 + Lapatinib; first compound 0.1265 µM) | relative viability (FH535 + Lapatinib; first compound 0.4 µM) | relative viability (FH535 + Lapatinib; first compound 1.265 µM)
1 | NCI-H3122 | 0.169 | 0.218 | 0.195 | 0.187 | 0.583 | 0.585 | 0.57 | 0.564 | 0.188 | 0.274 | 0.2 | 0.22 | 0.0802 | 0.122 | 0.0923 | 0.0705 | 1.01 | 0.978 | 0.999 | 0.89
2 | PC-3 [JPC-3] | 0.494 | 0.548 | 0.529 | 0.548 | 0.746 | 0.902 | 0.698 | 0.47 | 0.726 | 0.829 | 0.691 | 0.607 | 0.794 | 0.76 | 0.546 | 0.399 | 0.405 | 0.39 | 0.444 | 0.39
3 | PC-14 | 0.512 | 0.6 | 0.593 | 0.548 | 0.73 | 0.743 | 0.709 | 0.655 | 0.652 | 0.815 | 0.895 | 0.693 | 0.126 | 0.168 | 0.152 | 0.117 | 0.365 | 0.318 | 0.376 | 0.313
4 | RERF-LC-KJ | 0.992 | 1.05 | 0.957 | 0.846 | 0.49 | 0.534 | 0.478 | 0.392 | 0.862 | 0.921 | 0.869 | 0.744 | 1.27 | 1.14 | 1.13 | 0.728 | 0.916 | 0.884 | 0.824 | 0.714
5 | SK-LU-1 | 0.412 | 0.406 | 0.373 | 0.334 | 0.503 | 0.568 | 0.487 | 0.4 | 0.476 | 0.49 | 0.501 | 0.418 | 0.181 | 0.21 | 0.198 | 0.214 | 0.759 | 0.778 | 0.609 | 0.362
6 | SK-MES-1 | 0.305 | 0.301 | 0.312 | 0.263 | 0.329 | 0.384 | 0.365 | 0.411 | 0.503 | 0.541 | 0.577 | 0.552 | 0.814 | 0.907 | 0.797 | 0.56 | 0.493 | 0.448 | 0.422 | 0.412
7 | SW 1573 | 0.389 | 0.428 | 0.384 | 0.298 | 0.485 | 0.612 | 0.471 | 0.465 | 0.686 | 0.528 | 0.651 | 0.376 | 0.237 | 0.346 | 0.193 | 0.638 | 1 | 1.19 | 1.18 | 0.98
8 | UMC-11 | 0.346 | 0.361 | 0.311 | 0.325 | 0.749 | 0.619 | 0.726 | 0.787 | 0.663 | 0.525 | 0.576 | 0.684 | 1.12 | 1.03 | 1.02 | 0.763 | 0.858 | 0.994 | 0.885 | 0.765
